According to ChEMBL document CHEMBL3120132, “Antiviral compounds for the treatment of HCV” (ACS Med Chem Lett, 2014):

Test system: Hepatitis C virus
Test: Antiviral activity against Hepatitis C virus Con1 genotype 1b expressing NS3 infected in human 2209-23 cells assessed as inhibition of viral replication after 72 hrs by luciferase reporter gene assay
Type: functional, organism-based, Hepacivirus hominis
Conditions: isolate Con1, 2209-23, 72 h

Compound	IC50 [nM]
CCOC(=O)[C@@H]1C[C@H](NC(=O)c2ccc3ccccc3c2O)CN1CC(C)C	0.055
CCOC(=O)[C@@H]1C[C@H](NC(=O)c2ccc3ccccc3c2O)CN1CC1CCC1	0.052
CCOC(=O)[C@@H]1C[C@H](NC(=O)c2ccc3ccccc3c2O)CN1CC1CCCC1	0.029
COC(=O)[C@@H]1C[C@H](NC(=O)c2ccc3ccccc3c2O)CN1Cc1ccccc1	0.079
COC(=O)[C@@H]1C[C@H](NC(=O)c2ccc3ccccc3c2O)CN1CCC(C)(C)C	0.051
COC(=O)[C@@H]1C[C@H](NC(=O)c2ccc3ccccc3c2O)CN1CC1CCCCC1	0.047
